Data as given in publication PMC9294463, “Green Synthesis of Thiazolidine-2,4-dione Derivatives and Their Lipoxygenase Inhibition Activity With QSAR and Molecular Docking Studies” (Frontiers in Chemistry, 2022).

Target: T1, soybean lipoxygenase (Glycine max, UniProt P08170)
T1 construct: gene LOX1.1
T1 sequence (P08170 1-839): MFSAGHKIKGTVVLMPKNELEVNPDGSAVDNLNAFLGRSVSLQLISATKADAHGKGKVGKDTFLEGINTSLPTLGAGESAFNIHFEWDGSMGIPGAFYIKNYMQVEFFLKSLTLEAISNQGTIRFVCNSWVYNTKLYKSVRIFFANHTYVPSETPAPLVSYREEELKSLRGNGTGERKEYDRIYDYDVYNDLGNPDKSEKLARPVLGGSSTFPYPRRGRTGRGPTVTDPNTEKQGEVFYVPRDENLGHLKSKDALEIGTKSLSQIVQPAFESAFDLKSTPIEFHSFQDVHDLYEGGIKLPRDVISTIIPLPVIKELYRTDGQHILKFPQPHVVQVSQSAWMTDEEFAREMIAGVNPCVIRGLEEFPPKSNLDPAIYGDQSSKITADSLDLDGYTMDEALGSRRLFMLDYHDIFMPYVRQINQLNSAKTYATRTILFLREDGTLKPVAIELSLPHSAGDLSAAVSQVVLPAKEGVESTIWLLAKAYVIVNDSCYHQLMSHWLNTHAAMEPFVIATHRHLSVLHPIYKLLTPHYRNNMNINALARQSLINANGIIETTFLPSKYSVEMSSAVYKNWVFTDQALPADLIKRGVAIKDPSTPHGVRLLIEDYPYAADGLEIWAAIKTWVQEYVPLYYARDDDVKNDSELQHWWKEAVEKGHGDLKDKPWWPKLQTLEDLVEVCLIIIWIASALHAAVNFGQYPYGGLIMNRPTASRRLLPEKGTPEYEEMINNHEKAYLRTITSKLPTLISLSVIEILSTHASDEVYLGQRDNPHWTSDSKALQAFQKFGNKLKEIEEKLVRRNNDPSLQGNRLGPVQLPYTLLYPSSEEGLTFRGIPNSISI
Test: soybean lipoxygenase inhibition assay, % inhibition at […] (standard)
Type: biochemical

SMILES: C[C@H](Cc1ccc(O)c(O)c1)[C@@H](C)Cc1ccc(O)c(O)c1 [NDGA, nordihydroguaiaretic acid]
- inhibition at 100 µM: 80.8%
